Data on eleven compounds can be found in ChEMBL document CHEMBL1201862, “PubChem BioAssay data set” (2004).

Among the test systems are COLO 205; OVCAR-3; RXF 393; SNB-19; SK-MEL-5; T47D; EKVX; Hs-578T; NCI-H23; HCT-116; LOX IMVI; NCI-H226; 786-0; NCI-H460; A498; OVCAR-5; SF-539; K562; MOLT-4.
What all share (experiment): NCI tumour cell line growth inhibition, 48 h

Molecules are shown by their SMILES.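 All cell lines were grown in 96-well plates and treated with compound for 48 hours. GI50: concentration for 50% inhibition of growth.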 Active and inactive are the calls of the source. No stated cut-off is given here; in the data, active = GI50 up to about 1.1 µM and inactive = higher.

Consider `CC(C)(C)CNCCO`, for which the GI50 with COLO 205, with OVCAR-3, in the assay on RXF 393, with SNB-19, in the assay with SK-MEL-5 and in the assay on T47D was > 100 µM (inactive) throughout. Moreover, the GI50 in the assay with EKVX, in the assay with Hs-578T, in the assay with NCI-H23, with HCT-116, in the assay on LOX IMVI and with NCI-H226 was > 100 µM (inactive) each time. Also, the GI50 in the assay with 786-0, in the assay with NCI-H460, in the assay on A498, with OVCAR-5 and in the assay on SF-539 was > 100 µM (inactive) each time.
`O=C1c2ccccc2-c2c1c1ccccc1c(=O)n2-c1ccccc1`: the GI50 is > 46.5 µM (inactive) in the assay on COLO 205; 14.4 µM (inactive) in the assay with OVCAR-3; 4.59 µM (inactive) in the assay with RXF 393; 5.7 µM (inactive) with SNB-19; 9.66 µM (inactive) in the assay on SK-MEL-5; 15.8 µM (inactive) in the assay on T47D. For the same compound, the GI50 was 23.3 µM (inactive) in the assay with EKVX; 8.36 µM (inactive) in the assay on Hs-578T; 11.6 µM (inactive) with NCI-H23; 4.17 µM (inactive) in the assay on HCT-116; 68.5 µM (inactive) in the assay on LOX IMVI; 12.2 µM (inactive) in the assay on NCI-H226. In addition, the GI50 in the assay with K562 is > 60.1 µM (inactive); in the assay with 786-0, 3.07 µM (inactive); with MOLT-4, > 100 µM (inactive); with NCI-H460, 6.56 µM (inactive); in the assay with A498, 16.6 µM (inactive); in the assay with OVCAR-5, 45.5 µM (inactive). Also, the GI50 in the assay on SF-539 was 4.91 µM (inactive).
For the compound `C=CCCC(=O)CC(O)(C(F)(F)F)C(F)(F)F`, the GI50 in the assay with COLO 205, with OVCAR-3, in the assay with RXF 393, in the assay with SNB-19, in the assay on SK-MEL-5 and in the assay on T47D was > 100 µM (inactive) throughout. The GI50 in the assay on EKVX, in the assay with Hs-578T, in the assay with NCI-H23, with HCT-116, in the assay with LOX IMVI and in the assay on NCI-H226 was > 100 µM (inactive) in each case. For the same compound, the GI50 in the assay on K562, with 786-0, in the assay on MOLT-4, with NCI-H460, in the assay on A498 and with OVCAR-5 was > 100 µM (inactive) each time. In addition, the GI50 in the assay with SF-539 is > 100 µM (inactive).
For `Brc1ccc2c3c1[C@@H]1O[C@@H]1c1cccc(c1-3)[C@@H]1O[C@H]21`, the GI50 with COLO 205 was 21.8 µM (inactive); in the assay with OVCAR-3, 19.9 µM (inactive); in the assay on RXF 393, 17.1 µM (inactive); with SNB-19, 22.3 µM (inactive); in the assay on SK-MEL-5 it was 16.9 µM (inactive); in the assay with T47D, 15.4 µM (inactive). Moreover, the GI50 is 19.6 µM (inactive) in the assay with EKVX; 29.9 µM (inactive) in the assay on Hs-578T; 16.3 µM (inactive) with NCI-H23; 13.8 µM (inactive) in the assay on HCT-116; 2.21 µM (inactive) in the assay on LOX IMVI; 39.7 µM (inactive) in the assay on NCI-H226. Also, the GI50 in the assay on K562 is > 39.9 µM (inactive); in the assay on 786-0, 16.5 µM (inactive); with MOLT-4, > 53 µM (inactive); in the assay with A498, 26.9 µM (inactive); in the assay on OVCAR-5, 17.6 µM (inactive); with SF-539, 2.32 µM (inactive).
Regarding `c1ccc(C2=Nn3c(CCCCCCCCc4nnc5n4N=C(c4ccccc4)CS5)nnc3SC2)cc1`, the GI50 in the assay on COLO 205 was > 100 µM (inactive); in the assay with OVCAR-3 it was > 100 µM (inactive); in the assay on RXF 393, 20.5 µM (inactive); in the assay on SNB-19 it was 18.4 µM (inactive); in the assay with SK-MEL-5 it was > 100 µM (inactive); in the assay on T47D it was > 92.9 µM (inactive). The GI50 in the assay on EKVX is 76.2 µM (inactive); in the assay with Hs-578T, 21.1 µM (inactive); with NCI-H23 it was > 74.6 µM (inactive); in the assay on HCT-116, > 66.1 µM (inactive); in the assay on LOX IMVI it was 45.4 µM (inactive); in the assay on NCI-H226, 72.1 µM (inactive). For the same compound, the GI50 in the assay on K562 was 33.3 µM (inactive); with 786-0, 14.8 µM (inactive); in the assay with MOLT-4, 32.4 µM (inactive); in the assay with NCI-H460, > 100 µM (inactive); in the assay with A498 it was 39.1 µM (inactive); in the assay on OVCAR-5 it was > 75.9 µM (inactive). Also, the GI50 in the assay on SF-539 was 3.45 µM (inactive).
Turning to `COc1ccccc1NC(=S)Nc1cccc(C)n1`, the GI50 in the assay on COLO 205, with OVCAR-3, in the assay on RXF 393, in the assay on SNB-19, in the assay with SK-MEL-5 and in the assay on T47D was > 100 µM (inactive) each time. Also, the GI50 in the assay with EKVX is 16.2 µM (inactive); in the assay with Hs-578T, 37.2 µM (inactive); with HCT-116 it was > 100 µM (inactive); in the assay with LOX IMVI it was > 100 µM (inactive); with NCI-H226, 36.9 µM (inactive); in the assay with K562, > 100 µM (inactive). Further, the GI50 with 786-0 was 79.3 µM (inactive); with MOLT-4 it was > 100 µM (inactive); in the assay on NCI-H460, > 100 µM (inactive); in the assay with A498, > 100 µM (inactive); in the assay with OVCAR-5 it was > 100 µM (inactive); in the assay on SF-539 it was > 100 µM (inactive).
For the compound `N=c1ccn2c(n1)OC1C(OP(=O)(O)O)C(CO)OC12` (stereo not drawn), the GI50 with COLO 205 is > 70.6 µM (inactive); in the assay on OVCAR-3, > 71.3 µM (inactive); with RXF 393, > 100 µM (inactive); in the assay on SNB-19, 25 µM (inactive); in the assay on SK-MEL-5 it was 55.1 µM (inactive); with T47D, > 100 µM (inactive). Further, the GI50 was > 100 µM (inactive) in the assay on EKVX; > 100 µM (inactive) in the assay on Hs-578T; 6.93 µM (inactive) with NCI-H23; 2.06 µM (inactive) in the assay with HCT-116; 4.52 µM (inactive) in the assay on LOX IMVI; > 100 µM (inactive) in the assay with NCI-H226. Besides, the GI50 was > 80 µM (inactive) in the assay with K562; 9.77 µM (inactive) in the assay with 786-0; 0.147 µM (active) in the assay with MOLT-4; 0.53 µM (active) in the assay on NCI-H460; 10.8 µM (inactive) in the assay with A498; > 100 µM (inactive) with OVCAR-5. Further, the GI50 in the assay with SF-539 is 41.1 µM (inactive).
On to `COc1cccc2c1-c1ccccc1[C@H](Nc1ccccc1)[C@@]2(C)O`, for which the GI50 in the assay on COLO 205 was 3.1 µM (inactive); in the assay on OVCAR-3 it was 2.7 µM (inactive); in the assay on RXF 393 it was 4.6 µM (inactive); with SNB-19, 5.81 µM (inactive); in the assay on SK-MEL-5, 3.62 µM (inactive); in the assay on T47D it was 8.85 µM (inactive). Also, the GI50 in the assay on EKVX is 11 µM (inactive); with Hs-578T, 4.97 µM (inactive); in the assay with NCI-H23, 7.67 µM (inactive); with HCT-116, 4.11 µM (inactive); in the assay with LOX IMVI it was 10.1 µM (inactive); in the assay with NCI-H226, 3.4 µM (inactive). The GI50 in the assay with K562 is 3.31 µM (inactive); with 786-0 it was 5.45 µM (inactive); with MOLT-4, 7.28 µM (inactive); in the assay with NCI-H460, 3.91 µM (inactive); in the assay on A498 it was 8.95 µM (inactive); with OVCAR-5, 11.6 µM (inactive). Moreover, in the assay on SF-539, the GI50 was 2.77 µM (inactive).
Consider `Cc1ccc(S(=O)(=O)N(CC(O)COc2ccccc2)c2ccccc2Cl)cc1` (stereo not drawn), for which the GI50 in the assay on COLO 205 was 16.8 µM (inactive); in the assay with OVCAR-3, 19 µM (inactive); in the assay with RXF 393, 16 µM (inactive); in the assay on SNB-19 it was 18.2 µM (inactive); in the assay on SK-MEL-5, 14.7 µM (inactive); in the assay on T47D, 24.9 µM (inactive). For the same compound, the GI50 is 13.6 µM (inactive) with EKVX; 10.9 µM (inactive) in the assay with Hs-578T; 14.7 µM (inactive) with NCI-H23; 14.6 µM (inactive) in the assay on HCT-116; 17.3 µM (inactive) with LOX IMVI; 14.9 µM (inactive) in the assay on NCI-H226. Also, the GI50 is 11.6 µM (inactive) with K562; 18.4 µM (inactive) in the assay with 786-0; 19.8 µM (inactive) in the assay with MOLT-4; 17 µM (inactive) with NCI-H460; 17.7 µM (inactive) in the assay on A498; 23.3 µM (inactive) in the assay with OVCAR-5. The GI50 in the assay on SF-539 was 18 µM (inactive).
As for `CCCCCCCCCCCCCCCCOCC(COP(=O)(O)OCC1OC(n2cc(CC)c(=O)[nH]c2=O)CC1O)OC(=O)CCCCCCCCCCCCCCC` (stereo not drawn), the GI50 in the assay with COLO 205, in the assay on OVCAR-3, with RXF 393, with SNB-19, in the assay with T47D and in the assay on EKVX was > 100 µM (inactive) each time. Moreover, the GI50 in the assay with Hs-578T, in the assay with NCI-H23, in the assay with HCT-116, in the assay on LOX IMVI, in the assay on NCI-H226 and in the assay on K562 was > 100 µM (inactive) in each case. Further, the GI50 with 786-0, in the assay with MOLT-4, with A498, in the assay on OVCAR-5 and with SF-539 was > 100 µM (inactive) throughout.
Consider `CC(C)OC(=O)c1cc(NC(=S)OC(C)C)ccc1Cl`, for which the GI50 with COLO 205 is 14.6 µM (inactive); in the assay with OVCAR-3, 25.6 µM (inactive); with RXF 393, 22.3 µM (inactive); with SNB-19, 27 µM (inactive); in the assay with SK-MEL-5, 17.3 µM (inactive); in the assay with T47D, 23 µM (inactive). Further, the GI50 is 7.8 µM (inactive) in the assay with EKVX; 17.1 µM (inactive) in the assay on Hs-578T; 20.5 µM (inactive) in the assay with NCI-H23; 20.8 µM (inactive) with HCT-116; 17.2 µM (inactive) in the assay with LOX IMVI; 18.3 µM (inactive) with NCI-H226. In addition, the GI50 with K562 is 30.4 µM (inactive); in the assay on 786-0, 23.4 µM (inactive); in the assay on MOLT-4 it was 11.9 µM (inactive); in the assay on NCI-H460 it was > 39 µM (inactive); in the assay with A498 it was 25.9 µM (inactive); in the assay on OVCAR-5, 25.1 µM (inactive). Moreover, the GI50 in the assay on SF-539 was 14.8 µM (inactive).
